Patent US20210269479A1, “USE OF CY[…] FOR TREATING CANCER” (Hepion Pharmaceuticals, Inc., priority 2020, published 2021)

Key:
[1] = test system: human precision cut liver slices (PCLS); experiment: RNA-Seq of PCLS, Stimulation Protocol (TGFb/PDGF + CRV vs TGFb/PDGF + Vehicle); type: cell-based
Protocol: PCLS were obtained from 5 human donors who underwent resection of liver cancer. Replicate slices were collected from healthy margins of the resections and cultured for 4 or 6 days depending on the experimental protocol. In the Nonstimulation Protocol slices were cultured for 6 days and treated for the entire period with DMSO vehicle or 5 μM CRV431. In the Stimulation Protocol slices were rested for 1 day and then administered the cytokines, TGFβ and PDGF-BB, for 3 days to stimulate inflammation and fibrosis. DMSO vehicle, CRV431 (1 and 5 μM), Alk5i (10 μM), obeticholic acid (5 μM), elafibranor (5 μM), resmetirom (5 μM), and Aramchol (5 μM) were administered individually as drug treatments in the Stimulation Protocol concurrent with TGFβ+PDGF-BB. Culture medium treatments were replaced daily.
(d) Gene expression by RNA-Seq. RNA sequencing of the complete transcriptome (30 million reads per sample) was conducted on vehicle and 5 μM CRV431 treatment groups from 3 donors both from the Nonstimulation and Stimulation Protocols. Data were analyzed by bioinformatics software programs to identify genes that were differentially expressed between vehicle and CRV431 treatments.
For the evaluation done for (d), 12 samples corresponding to 3 different donor slides which underwent 4 different treatments were studied. the comparisons carried out in this analysis are: (1) TGFb/PDGF+CRV vs TGFb/PDGF+Vehicle (V), and (2) Non-stimulated+CRV vs Non-stimulated+Vehicle.
Heatmaps were also generated to plot significant differently expressed genes for the comparison TGFb/PDGF+CRV and TGFb/PDGF+Vehicle (p-adjust<0.05, log fold change>0.5). The heatmap with the samples grouped by group is shown in FIG. 3A to observe the different expression pattern present within the group (blue=vehicle; red=CRV). The same significant genes were also plotted into another heatmap (FIG. 3B) but the samples are now plotted grouped by donor in order to observe the differences between donors (blue=vehicle; red=CRV).
Significant differently expressed genes that were identified in the comparison TGFb/PDGF+CRV and TGFb/PDGF+Vehicle ([…], log fold change>0.5) are shown in Table 2. The fold change is relative to the treatment (CRV).
As shown in the PCA analysis, there is a strong effect of the donor. Therefore, each donor was analyzed individually. Counts comparison was performed for TGFb/PDGF+[…] vs TGFb/PDGF+Vehicle by donor. […] Therefore the vehicle group had at least 300 copies less than CRV treatment. In other words, the treatment had at least 300 copies more than the Vehicle. After doing this selection individually for each donor, a venn diagram was plotted showing the overlapping between all three donors.
So, they had at least 300 copies less in the CRV treatment compared to the vehicle. After doing the selection individually for each donor, a venn diagram was plotted showing the overlapping between all three donors.

[2] = test system: liver tumors (likely hepatocellular carcinoma); experiment: Liver tumor burden in streptozotocin/high-fat diet NASH mice; type: in vivo, C57BL/6J male mice
Protocol: NASH was initiated in 2-day-old C57BL/6J male mice by intraperitoneal injection with […] streptozotocin (S0130; Sigma-Aldrich) to disrupt pancreatic β cells, induce diabetes, and promote adiposity in the liver. Mice were weaned at 3 weeks of age and begun on a high-fat diet with 60% kcal fat (D12492N; Research Diets) for the duration of the studies. Additionally, mice with a regular diet (D12450KN; Research Diets) and without streptozotocin were included as negative controls. CRV431 was dissolved in a self-microemulsifying drug vehicle and then diluted with PBS and administered daily by oral gavage at 50 mg/kg per day. The start time and duration of vehicle and CRV431 treatments varied depending on the study.
In two separate experiments, tumor burden at the end of treatment was assessed by the number of tumors (FIGS. 11A and 12A) and a composite score based on the number and size of tumors (0-7 scale; FIGS. 11B and 12B).

[3] = TGFb/PDGF + CRV vs TGFb/PDGF + Vehicle, 5 μM
[4] = presence of exogenous TGFβ+PDGF-BB, all donors
[5] = 50 mg/kg per day oral gavage, weeks 20 to 30

`CC[C@@H]1NC(=O)[C@H]([C@H](O)[C@H](C)CCCCCCNC(C)=O)N(C)C(=O)[C@H](C(C)C)N(C)C(=O)[C@H](CC(C)C)N(C)C(=O)[C@H](CC(C)C)N(C)C(=O)[C@@H](C)NC(=O)[C@H](C)NC(=O)[C@H](CC(C)C)N(C)C(=O)[C@H](C(C)C)NC(=O)[C@H](CC(C)C)N(C)C(=O)[C@@H](C)N(C)C1=O` [CRV431] was tested. Which “log2FoldChange, gene AC009053.1” value [1, 3] did it give?
The value was 1.194.

And the “log2FoldChange, gene AC134772.2” value [1, 3]?
The value was −4.561.

What about the “log2FoldChange, gene ADH1B” value [1, 3] of the same compound?
The value was 2.156.

What about the “log2FoldChange, gene ADH1C” value [1, 3] of the same compound?
The value was 1.869.

What about the “log2FoldChange, gene ADH4” value [1, 3] of the same compound?
Its value is 2.123.

And the “log2FoldChange, gene ADH6” value [1, 3]?
Its value is 1.903.

What about the “log2FoldChange, gene ADIRF” value [1, 3] of the same compound?
The value was 1.402.

What about the “log2FoldChange, gene APLNR” value [1, 3] of the same compound?
Its value is 0.844.

And the “log2FoldChange, gene ASPG” value [1, 3]?
Its value is 0.91.

And the “log2FoldChange, gene ATP13A4” value [1, 3]?
The value was −3.082.

And the “log2FoldChange, gene C7” value [1, 3]?
Its value is 0.739.

What about the “log2FoldChange, gene CA11” value [1, 3] of the same compound?
Its value is −1.573.

What about the “log2FoldChange, gene CBFA2T2” value [1, 3] of the same compound?
Its value is 1.299.

What about the “log2FoldChange, gene CD93” value [1, 3] of the same compound?
Its value is −0.613.

And the “log2FoldChange, gene CHST1” value [1, 3]?
Its value is −1.087.

And the “log2FoldChange, gene COL5A3” value [1, 3]?
Its value is −0.842.

What about the “log2FoldChange, gene CXADR” value [1, 3] of the same compound?
The value was 1.61.

And the “log2FoldChange, gene CYP4A11” value [1, 3]?
The value was 1.611.

And the “log2FoldChange, gene CYP26A1” value [1, 3]?
The value was −1.283.

What about the “log2FoldChange, gene CYP26B1” value [1, 3] of the same compound?
Its value is −0.656.

And the “log2FoldChange, gene DCHS1” value [1, 3]?
Its value is −0.686.

What about the “log2FoldChange, gene DLL4” value [1, 3] of the same compound?
Its value is −0.69.

What about the “log2FoldChange, gene DUOX2” value [1, 3] of the same compound?
The value was −2.182.

What about the “log2FoldChange, gene DVL1” value [1, 3] of the same compound?
Its value is 0.635.

What about the “log2FoldChange, gene ENSG00000283623 (symbol NA)” value [1, 3] of the same compound?
Its value is −5.759.

And the “log2FoldChange, gene ERVK13-1” value [1, 3]?
Its value is −1.125.

What about the “log2FoldChange, gene ESAM” value [1, 3] of the same compound?
The value was −0.573.

What about the “log2FoldChange, gene ESM1” value [1, 3] of the same compound?
Its value is −1.401.

And the “log2FoldChange, gene ESR1” value [1, 3]?
The value was 3.688.

And the “log2FoldChange, gene F2RL3” value [1, 3]?
Its value is −0.711.

And the “log2FoldChange, gene GLYATL1” value [1, 3]?
Its value is 1.438.

And the “log2FoldChange, gene GPR4” value [1, 3]?
The value was −0.9.

What about the “log2FoldChange, gene GRAP” value [1, 3] of the same compound?
Its value is −0.772.

And the “log2FoldChange, gene HIST2H2AA4” value [1, 3]?
Its value is −7.504.

And the “log2FoldChange, gene IGHV4-61” value [1, 3]?
Its value is 7.957.

And the “log2FoldChange, gene IGLON5” value [1, 3]?
Its value is −0.851.

And the “log2FoldChange, gene ISLR2” value [1, 3]?
Its value is −1.27.

And the “log2FoldChange, gene KDM6A” value [1, 3]?
Its value is 0.785.

What about the “log2FoldChange, gene LAMA4” value [1, 3] of the same compound?
Its value is −0.939.

And the “log2FoldChange, gene LIMS3” value [1, 3]?
The value was −1.705.

And the “log2FoldChange, gene LOXL2” value [1, 3]?
The value was −0.948.

What about the “log2FoldChange, gene MCAM” value [1, 3] of the same compound?
Its value is −0.841.

And the “log2FoldChange, gene MEF2C” value [1, 3]?
Its value is −1.013.

And the “log2FoldChange, gene MEG3” value [1, 3]?
Its value is −0.853.

And the “log2FoldChange, gene MRC2” value [1, 3]?
The value was −0.773.

What about the “log2FoldChange, gene MROH2A” value [1, 3] of the same compound?
The value was 3.641.

And the “log2FoldChange, gene MT-CO1” value [1, 3]?
Its value is −0.85.

And the “log2FoldChange, gene NID2” value [1, 3]?
Its value is −0.755.

And the “log2FoldChange, gene NXPH4” value [1, 3]?
The value was −0.808.

And the “log2FoldChange, gene PAN2” value [1, 3]?
Its value is 1.019.

What about the “log2FoldChange, gene PANK3” value [1, 3] of the same compound?
Its value is 0.687.

What about the “log2FoldChange, gene PCDH12” value [1, 3] of the same compound?
The value was −0.741.

And the “log2FoldChange, gene PHF8” value [1, 3]?
The value was 0.709.

What about the “log2FoldChange, gene PKLR” value [1, 3] of the same compound?
The value was 2.127.

What about the “log2FoldChange, gene PLXNA2” value [1, 3] of the same compound?
The value was 1.326.

And the “log2FoldChange, gene POU6F1” value [1, 3]?
The value was −1.716.

And the “log2FoldChange, gene PPP1R16B” value [1, 3]?
Its value is −1.016.

And the “log2FoldChange, gene RALGPS2” value [1, 3]?
Its value is 0.836.

What about the “log2FoldChange, gene RBMXL1” value [1, 3] of the same compound?
The value was −8.265.

And the “log2FoldChange, gene RCCD1” value [1, 3]?
The value was −1.838.

And the “log2FoldChange, gene RHCG” value [1, 3]?
The value was −0.927.

And the “log2FoldChange, gene RPS7P1” value [1, 3]?
Its value is 2.668.

What about the “log2FoldChange, gene SLC4A8” value [1, 3] of the same compound?
The value was −2.641.

What about the “log2FoldChange, gene SLC26A6” value [1, 3] of the same compound?
The value was −0.692.

And the “log2FoldChange, gene SLC39A5” value [1, 3]?
The value was 1.92.

And the “log2FoldChange, gene SMC5” value [1, 3]?
The value was 0.799.

And the “log2FoldChange, gene STRA6” value [1, 3]?
The value was −1.639.

And the “log2FoldChange, gene STX16” value [1, 3]?
Its value is 1.025.

What about the “log2FoldChange, gene TDO2” value [1, 3] of the same compound?
Its value is 0.916.

What about the “log2FoldChange, gene TMEM70” value [1, 3] of the same compound?
Its value is 1.062.

What about the “log2FoldChange, gene TTYH2” value [1, 3] of the same compound?
Its value is −1.114.

What about the “log2FoldChange, gene UBD” value [1, 3] of the same compound?
Its value is −1.035.

What about the “log2FoldChange, gene VWA8” value [1, 3] of the same compound?
Its value is 1.514.

What about the “log2FoldChange, gene ZC3H10” value [1, 3] of the same compound?
Its value is 1.022.

And the “log2FoldChange, gene ZDHHC20” value [1, 3]?
Its value is 1.207.

And the “log2FoldChange, gene ZNF461” value [1, 3]?
The value was 1.391.

And the “expression of fibrosis-related genes by RNA-Seq” value ([1]; collagen genes, collagen hydroxylases and oxidases, ACTA2, VEGF, TIMPs)?
The value was “decreased expression of many fibrosis-related genes”.

And the “fold change in RNA, DUOX2” value [1, 4]?
The value was −4.5 fold.

What about the “fold change in RNA, ESM1” value [1, 4] of the same compound?
The value was −2.6 fold.

What about the “fold change in RNA, LOXL2” value [1, 4] of the same compound?
Its value is −1.9 fold.

And the “fold change in RNA, RCCD1” value [1, 4]?
Its value is −3.6 fold.

And the “fold change in RNA, STRA6” value [1, 4]?
Its value is −3.1 fold.

What about the “fold change in RNA, UBD/FAT10” value [1, 4] of the same compound?
The value was −2.0 fold.

And the “decrease of tumor burden (score combining tumor number and size)” value [2, 5]?
Its value is 52%.

What about the livers lacking tumors [2, 5] of the same compound?
The livers lacking tumors was 2 of 10.

And the “number of liver tumors vs vehicle” value [2, 5]?
Its value is “half the number of tumors”.

And the “tumor size vs vehicle” value [2, 5]?
Its value is “smaller tumors on average”.

What about the “Tumor number, mean” value ([2]; 50 mg/kg/day, end of treatment) of the same compound?
Its value is 4.80.

And the “Tumor score, mean (0-7 scale)” value ([2]; 50 mg/kg/day, end of treatment)?
Its value is 2.40.
